Laboratory results taken from ChEMBL document CHEMBL1268914, “5,6,7,8-Tetrahydropyrido[4,3-d]pyrimidines as novel class of potent and highly selective CaMKII inhibitors” (Bioorg Med Chem Lett, 2010).

Legend:
[1] = Inhibition of CAMK2
[2] = molecular target: T1, Calcium/calmodulin-dependent protein kinase type IV (Homo sapiens, UniProt Q16566); experiment: Inhibition of CAMK4
T1 sequence (Q16566 whole entry): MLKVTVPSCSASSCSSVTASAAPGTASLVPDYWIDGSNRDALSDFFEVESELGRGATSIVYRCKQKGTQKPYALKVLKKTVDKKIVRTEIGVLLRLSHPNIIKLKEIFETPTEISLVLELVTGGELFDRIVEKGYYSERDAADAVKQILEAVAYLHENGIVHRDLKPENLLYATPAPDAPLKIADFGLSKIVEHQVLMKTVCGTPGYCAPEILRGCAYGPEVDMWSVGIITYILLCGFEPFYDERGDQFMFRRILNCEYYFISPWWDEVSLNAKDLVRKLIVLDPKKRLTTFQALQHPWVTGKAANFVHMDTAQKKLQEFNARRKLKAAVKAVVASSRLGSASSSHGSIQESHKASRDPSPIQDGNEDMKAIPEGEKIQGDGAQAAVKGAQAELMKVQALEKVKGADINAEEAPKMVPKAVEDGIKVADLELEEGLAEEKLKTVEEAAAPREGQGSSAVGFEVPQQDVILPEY

[3] = molecular target: Myosin light chain kinase, smooth muscle (Homo sapiens, UniProt Q15746); experiment: Inhibition of MLCK
[4] = molecular target: Mitogen-activated protein kinase 14 (Homo sapiens, UniProt Q16539); experiment: Inhibition of p38alpha
[5] = molecular target: RAC-alpha serine/threonine-protein kinase (Homo sapiens, UniProt P31749); experiment: Inhibition of AKT1
[6] = Inhibition of PKC
[7] = Non-competitive inhibition of CAMK2 by Michaelis-Menten plot

Chain of Myosin light chain kinase, smooth muscle (Q15746 whole entry): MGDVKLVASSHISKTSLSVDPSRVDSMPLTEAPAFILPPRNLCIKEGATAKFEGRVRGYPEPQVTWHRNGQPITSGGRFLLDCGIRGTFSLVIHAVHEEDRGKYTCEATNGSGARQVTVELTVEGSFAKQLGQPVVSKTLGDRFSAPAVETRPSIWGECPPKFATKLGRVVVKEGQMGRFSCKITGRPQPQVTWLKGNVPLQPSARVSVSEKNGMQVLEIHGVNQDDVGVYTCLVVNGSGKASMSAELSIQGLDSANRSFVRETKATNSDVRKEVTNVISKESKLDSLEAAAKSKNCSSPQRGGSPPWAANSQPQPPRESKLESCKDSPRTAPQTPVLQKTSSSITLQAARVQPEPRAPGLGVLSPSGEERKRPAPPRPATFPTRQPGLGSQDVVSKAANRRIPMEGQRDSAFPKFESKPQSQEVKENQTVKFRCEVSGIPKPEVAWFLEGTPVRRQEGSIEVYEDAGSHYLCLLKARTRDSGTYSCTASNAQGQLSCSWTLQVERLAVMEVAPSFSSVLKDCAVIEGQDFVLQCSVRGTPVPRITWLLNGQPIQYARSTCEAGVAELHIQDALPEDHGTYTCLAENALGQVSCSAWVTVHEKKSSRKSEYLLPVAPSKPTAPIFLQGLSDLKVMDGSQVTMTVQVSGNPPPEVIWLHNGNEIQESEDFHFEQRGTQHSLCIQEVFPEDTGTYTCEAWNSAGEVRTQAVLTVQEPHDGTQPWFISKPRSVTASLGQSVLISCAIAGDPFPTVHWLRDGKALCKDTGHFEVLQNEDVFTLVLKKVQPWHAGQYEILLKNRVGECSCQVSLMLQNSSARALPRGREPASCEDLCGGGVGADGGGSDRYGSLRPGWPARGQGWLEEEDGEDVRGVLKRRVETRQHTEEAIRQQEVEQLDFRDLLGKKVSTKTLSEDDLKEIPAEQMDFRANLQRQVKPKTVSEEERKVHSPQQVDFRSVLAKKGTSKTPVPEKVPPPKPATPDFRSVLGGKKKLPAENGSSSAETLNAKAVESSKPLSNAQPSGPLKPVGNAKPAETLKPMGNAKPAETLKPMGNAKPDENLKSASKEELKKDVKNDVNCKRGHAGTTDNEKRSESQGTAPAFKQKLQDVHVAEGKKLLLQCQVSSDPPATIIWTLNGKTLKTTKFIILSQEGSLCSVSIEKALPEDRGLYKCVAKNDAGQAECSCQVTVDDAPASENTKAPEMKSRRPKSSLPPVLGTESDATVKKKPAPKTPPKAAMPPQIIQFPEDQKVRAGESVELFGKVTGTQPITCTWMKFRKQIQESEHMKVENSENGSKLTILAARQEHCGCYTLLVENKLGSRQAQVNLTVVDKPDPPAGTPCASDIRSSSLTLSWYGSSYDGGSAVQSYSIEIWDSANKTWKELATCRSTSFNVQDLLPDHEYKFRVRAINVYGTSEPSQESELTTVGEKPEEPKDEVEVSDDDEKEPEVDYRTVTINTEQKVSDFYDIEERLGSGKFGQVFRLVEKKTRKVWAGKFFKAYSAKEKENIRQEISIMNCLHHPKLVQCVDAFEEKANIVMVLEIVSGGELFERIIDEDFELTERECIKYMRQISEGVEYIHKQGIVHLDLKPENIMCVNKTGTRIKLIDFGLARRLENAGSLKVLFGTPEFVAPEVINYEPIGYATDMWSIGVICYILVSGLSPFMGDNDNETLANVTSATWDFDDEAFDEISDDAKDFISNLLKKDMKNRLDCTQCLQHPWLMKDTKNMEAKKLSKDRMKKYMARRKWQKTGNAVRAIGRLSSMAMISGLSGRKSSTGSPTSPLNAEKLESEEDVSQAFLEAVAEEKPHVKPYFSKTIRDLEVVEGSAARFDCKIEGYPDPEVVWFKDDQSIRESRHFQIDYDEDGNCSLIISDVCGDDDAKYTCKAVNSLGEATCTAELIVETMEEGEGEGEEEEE
Chain of Mitogen-activated protein kinase 14 (Q16539 whole entry): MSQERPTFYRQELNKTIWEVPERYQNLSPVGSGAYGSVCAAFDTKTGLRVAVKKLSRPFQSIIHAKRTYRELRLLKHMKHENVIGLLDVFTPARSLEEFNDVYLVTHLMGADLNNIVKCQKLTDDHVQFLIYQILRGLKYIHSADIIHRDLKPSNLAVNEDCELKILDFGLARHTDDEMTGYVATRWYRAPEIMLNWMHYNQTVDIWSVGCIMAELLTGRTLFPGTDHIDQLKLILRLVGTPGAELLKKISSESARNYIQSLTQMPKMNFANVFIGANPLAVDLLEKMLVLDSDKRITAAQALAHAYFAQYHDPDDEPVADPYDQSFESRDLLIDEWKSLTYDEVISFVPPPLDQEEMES
Chain of RAC-alpha serine/threonine-protein kinase (P31749 whole entry): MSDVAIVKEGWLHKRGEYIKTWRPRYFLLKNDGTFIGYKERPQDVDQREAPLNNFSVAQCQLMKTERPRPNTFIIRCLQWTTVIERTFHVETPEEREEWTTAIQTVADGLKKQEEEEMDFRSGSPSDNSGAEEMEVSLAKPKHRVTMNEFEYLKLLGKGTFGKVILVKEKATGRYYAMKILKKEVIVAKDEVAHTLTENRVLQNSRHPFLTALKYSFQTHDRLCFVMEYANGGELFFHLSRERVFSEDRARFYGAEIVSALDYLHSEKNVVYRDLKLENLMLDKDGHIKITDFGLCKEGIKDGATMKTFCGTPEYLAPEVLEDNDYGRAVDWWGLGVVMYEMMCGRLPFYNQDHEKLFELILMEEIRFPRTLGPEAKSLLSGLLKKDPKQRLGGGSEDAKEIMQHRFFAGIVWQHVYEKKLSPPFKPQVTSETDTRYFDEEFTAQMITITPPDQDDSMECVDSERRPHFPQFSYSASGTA

## CS(=O)(=O)Nc1ccnc(NCCc2ccccc2)n1
[1]
  IC50: 60 µM

## O=S(=O)(Nc1nc(OCCc2ccccc2)nc2c1CN(Cc1ccccc1)CC2)c1ccc2ccccc2c1
[1]
  IC50: 1.8 µM

## Cc1ccccc1S(=O)(=O)Nc1nc(NCCc2ccccc2)nc2c1CN(Cc1ccccc1)CC2
[1]
  IC50: 0.53 µM

## Cc1cccc(S(=O)(=O)Nc2nc(NCCc3ccccc3)nc3c2CN(Cc2ccccc2)CC3)c1
[1]
  IC50: 2.4 µM

## Cc1ccc(S(=O)(=O)Nc2nc(NCCc3ccccc3)nc3c2CN(Cc2ccccc2)CC3)cc1
[1]
  IC50: 2.7 µM

## COc1ccc(S(=O)(=O)Nc2nc(NCCc3ccccc3)nc3c2CN(Cc2ccccc2)CC3)cc1
[1]
  IC50: 3.2 µM

## Cc1c(Cl)cccc1S(=O)(=O)Nc1nc(NCCc2ccccc2)nc2c1CN(Cc1ccccc1)CC2
[1]
  IC50: 0.063 µM
[2]
  IC50: > 60 µM
[3]
  IC50: 36 µM
[4]
  IC50: 11 µM
[5]
  IC50: 30 µM
[6]
  IC50: 21 µM

## Cc1ccc(S(=O)(=O)Nc2nc(NCCc3ccccc3)nc3c2CN(Cc2ccccc2)CC3)cc1Cl
[1]
  IC50: 0.76 µM

## O=S(=O)(Nc1ccnc(NCCc2ccccc2)n1)c1ccc(Cl)cc1
[1]
  IC50: 11 µM
[3]
  IC50: 51 µM

## O=S(=O)(Cc1ccccc1)Nc1ccnc(NCCc2ccccc2)n1
[1]
  IC50: 27 µM

## O=S(=O)(Nc1nc(NCCc2ccccc2)nc2c1CCCC2)c1ccc(Cl)cc1
[1]
  IC50: 60 µM

## O=S(=O)(Nc1nc(NCCc2ccccc2)nc2c1CN(Cc1ccccc1)CC2)c1ccccc1
[1]
  IC50: 9.7 µM

## O=S(=O)(Nc1nc(NCCc2ccccc2)nc2c1CN(Cc1ccccc1)CC2)c1ccc(Cl)cc1
[1]
  IC50: 3.2 µM

## CN1CCc2nc(NCCc3ccccc3)nc(NS(=O)(=O)c3ccccc3)c2C1
[1]
  IC50: 10 µM

## CN(c1nc(NCCc2ccccc2)nc2c1CN(Cc1ccccc1)CC2)S(=O)(=O)c1ccccc1
[1]
  IC50: 9.3 µM

## CCCN(c1nc(NCCc2ccccc2)nc2c1CN(Cc1ccccc1)CC2)S(=O)(=O)c1ccccc1
[1]
  IC50: > 30 µM

## O=S(=O)(Nc1nc(NCCc2ccccc2)nc2c1CN(Cc1ccccc1)CC2)c1ccccc1Cl
[1]
  IC50: 0.92 µM

## O=S(=O)(Nc1nc(NCCc2ccccc2)nc2c1CN(Cc1ccccc1)CC2)c1cccc(Cl)c1
[1]
  IC50: 0.42 µM

## O=S(=O)(Nc1nc(NCCc2ccccc2)nc2c1CN(Cc1ccccc1)CC2)c1cccc(Cl)c1Cl
[1]
  IC50: 1 µM

## O=S(=O)(Nc1nc(NCCc2ccccc2)nc2c1CN(Cc1ccccc1)CC2)c1ccc(Cl)c(Cl)c1
[1]
  IC50: 0.2 µM

## O=S(=O)(Nc1nc(NCCc2ccccc2)nc2c1CN(Cc1ccccc1)CC2)c1cccc2ccccc12
[1]
  IC50: 3.3 µM

## O=S(=O)(Nc1nc(NCCc2ccccc2)nc2c1CN(Cc1ccccc1)CC2)c1ccc2ccccc2c1
[1]
  IC50: 0.16 µM
[7]
  Ki: 0.926 µM
[2]
  IC50: > 60 µM
[3]
  IC50: 0.9 µM
[4]
  IC50: 11 µM
[5]
  IC50: 8.5 µM
[6]
  IC50: 22 µM

## COc1ccc(S(=O)(=O)N(CCO)c2ccccc2CN(C)C/C=C/c2ccc(Cl)cc2)cc1
[1]
  IC50: 1.6 µM
